Among the data in the OPERA property sets (Mansouri et al. 2018) are logP values, retold here.

Peptide text beside a SMILES is read from it.

A word on the logP: it is a log measure of how a compound divides between an organic and an aqueous phase. A high value points to a more lipophilic compound.

Compound `COc1ccccc1NC(=O)Nc1ccccc1OC` displayed a logP of 2.98.
`CC(C)CC(N)Cc1ccccc1` (stereo not drawn) had a logP of 3.29.
`C=CCN(C(C)=O)C(C)C`: the logP was 1.14.
`O=C(O)c1cccc2ccccc12` displayed a logP of 3.1.
`C=CNP(=O)(NC=C)NC(=O)c1ccc(OC)cc1` returned a logP of 1.08.
The result for `CS(=O)(=O)c1ccc(C(=O)O)cc1` reads 0.67.
The result for `COc1cc(S(C)=O)ccc1-c1cn2ccnc(OC)c2n1` (stereo not drawn) reads 1.49; that for `CC(=O)CCC1CC1`, 1.5; that for `CN(C)C`, 0.16.
`CCCCOc1ccc(C(=O)O)cc1`: the logP was determined as 3.57.
The result for `CCCCC1(c2ccncc2)CCC(=O)NC1=O` (stereo not drawn) reads 1.68; that for `ClC(Cl)=C(Cl)Cl`, 3.4.
Compound `Cc1ccc(NS(=O)(=O)C(F)(F)F)cc1` registered a logP of 3.6.
As for `COP(=O)(OC)OC`, the logP is -0.65.
As for `Clc1ccc(C(c2ccc(Cl)cc2)C(Cl)(Cl)Cl)cc1`, the logP turned out to be 6.91.
As for `CC(=O)Nc1ccc(F)cc1`, the logP amounted to 1.47.
For the compound `Oc1ccc2cccc(O)c2c1`, the logP worked out at 1.94.
`CNC(=O)Oc1cccc2c1OC(C)(C)O2` gave a logP of 1.7.
As for `CC(O)CO` (stereo not drawn), the logP was -0.92.
`CC(C)c1cccc(C(C)C)c1NC(N)=O` came in with a logP of 2.26.
The compound `CCCC=O` gave a logP of 0.88.
Next, `NC(=O)NC(=O)Cc1ccccc1`: 0.87.
In turn, `C1=CC=CC=CC=C1` showed a logP of 3.08.
Compound `O=C(c1ccccc1)c1ccccn1` showed a logP of 1.88.
Next, `Cc1ccccc1C(=O)Nc1cccc(OC(C)C)c1`: 3.66; `COC(COC(N)=O)C1=C(N2CC2)C(=O)C(C)=C(N2CC2)C1=O` (stereo not drawn): -0.15; `OCCCCc1ccncc1`: 0.9.
The result for `CCOC(=O)C(=Cc1cccc(C)c1)C(=O)OCC` reads 3.55; that for `CCC(C)NC(=O)C=C(Cl)c1ccccc1` (stereo not drawn), 3.52.
Turning to `N#CC(C#N)=NNc1ccc(C(=O)CCl)cc1`, the logP is 2.15.
On to `CN1C(=O)CN=C(c2ccc(Cl)cc2)c2cc(F)ccc21`, for which the logP turned out to be 3.1.
`Nc1cc(Cl)c(Cl)c(Cl)c1` came in with a logP of 3.32.
`CN(C)CCc1cccnc1`: the logP worked out at 0.82.
The result for `NC(=O)Nc1ccccc1` reads 0.83; that for `CCC1(c2ccccc2)C(=O)NC(=O)N(C(C)C)C1=O` (stereo not drawn), 2.58; that for `CCCC(NC(C)=O)C(N)=O` (stereo not drawn), -0.45.
As to `c1ccc(SSc2ccccc2)cc1`, the log partition coefficient (logP) was 4.41.
Consider `CC1COC(=O)O1` (stereo not drawn), for which the logP is -0.41.
For the compound `CCN`, the logP is -0.13.
Regarding `OCC1CC1c1ccccc1` (stereo not drawn), the logP came out at 1.95.
The result for `c1ccc2c(c1)cnn2C12CC3CC(CC(C3)C1)C2` reads 4.33.
As to `CCOC(=O)CON=Cc1ccc(OCC(=O)OCC)c(OC)c1`, the log partition coefficient (logP) turned out to be 1.87.
`Clc1cc(Cl)cc(Cl)c1` returned a logP of 4.19.
The result for `CCN(CC)CCNC(=O)c1cc(S(=O)(=O)CC)c(N)cc1OC` reads 1.7.
Next, `O=[N+]([O-])c1cccc(O)c1`: 2; `O=[N+]([O-])c1ccc2cccnc2c1`: 1.82; `COc1ccccc1C(=O)c1ccncc1`: 1.86.
`CC(=O)Nc1ccc(N(C)C)cc1` registered a logP of 1.
The result for `O=[N+]([O-])c1cccc(I)c1` reads 2.94; that for `Cc1c(Cl)ccc(OC(C)C(O)=Nc2ccccc2)c1Cl` (stereo not drawn), 4.8.
The result for `NC(=O)Nc1cccc(F)c1` reads 1.29; that for `COc1ccccc1Oc1ccccc1`, 2.92.
For the compound `CCCC(=O)O[C@H]1[C@H](C)O[C@@H](O[C@H]2[C@H](N(C)C)[C@@H](O)[C@H](O[C@H]3[C@@H](CC=O)C[C@@H](C)[C@@H](O)C=CC=CC[C@@H](C)OC(=O)C[C@@H](O)[C@@H]3OC)O[C@@H]2C)C[C@@]1(C)OC(=O)CC`, the logP turned out to be 3.08.
In the case of `OCCN1CCN(CCC=C2c3ccccc3Sc3ccc(C(F)(F)F)cc32)CC1`, the logP stood at 4.51.
The result for `CC(C)N(C(=O)CCl)c1ccccc1` reads 2.18; that for `CC(=O)Nc1ccccc1C`, 0.85; that for `C[C@]12CC[C@H]3[C@@H](CCC4=CC(=O)CC[C@@H]43)[C@@H]1CC[C@@H]2O`, 2.62.
`O=[N+]([O-])c1cccc(-c2ccccc2)c1` showed a logP of 3.87.
Next, `CC(C)=CC1C(C(=O)OCN2C(=O)C3=C(CCCC3)C2=O)C1(C)C` (stereo not drawn): 4.73; `COCc1ccc(C(=O)O)cc1`: 1.76.
The result for `Nc1ncnc2nn[nH]c12` reads -0.96; that for `O=NN1CCNCC1`, 0.18; that for `CC(=O)N[C@@H](Cc1c[nH]c2ccccc12)C(=O)N[C@H](C(N)=O)C(C)C` (Ac-Trp-Val-NH2), 0.73.
The result for `CCC[N+](=O)[O-]` reads 0.87; that for `Nc1ccc([N+](=O)[O-])cc1N`, 0.88.
Regarding `CON=C(C(=O)NC1C(=O)N2C(C(=O)OCOC(=O)C(C)(C)C)=C(CSc3nnnn3C)CSC12)c1csc(N)n1` (stereo not drawn), the logP is 1.74.
The result for `Cc1ccccc1OC(=O)N(C)C` reads 1.86; that for `O=C1Nc2ccccc2C1=O`, 0.83; that for `CCC(C)c1ccccc1OCC(=O)O` (stereo not drawn), 3.32.
Consider `CN(C)C(=O)C(C(=O)N(C)C)C(=O)N(C)C`, for which the logP is -3.09.
The result for `CCOP(=S)(OCC)Oc1ccc(SC)cc1` reads 4.16.
With `C/N=C(\N)NC#N`, the logP is -0.77.
With `CCC1Nc2cc(Cl)c(S(N)(=O)=O)cc2S(=O)(=O)N1` (stereo not drawn), the logP turned out to be 0.3.
The result for `O=C(O)Cc1cccc(C(=O)O)c1` reads 1.14; that for `O=C(O)COc1ccccc1Br`, 2.04.
Regarding `COC(=O)CCCc1ccccc1`, the logP came out at 2.77.
Regarding `Cc1cccc(C(=O)NN)c1`, the logP is 0.74.
The result for `C(=C\c1ccccc1)/c1ccccc1` reads 4.81; that for `Cc1n[nH]c(C(N)=O)c1[N+](=O)[O-]`, -0.38.
Next, `CC(=O)NCC(=O)N[C@@H](C)C(=O)N[C@H](C(N)=O)C(C)C` (Ac-Gly-Ala-Val-NH2): -1.56.
`N#CCc1ccsc1` displayed a logP of 1.26.
Turning to `CC[C@H](C)[C@H](NC(=O)[C@@H](NC(C)=O)C(C)C)C(=O)NCC(N)=O` (Ac-Val-Ile-Gly-NH2), the logP is -0.45.
The result for `O=C(OCn1ncc2c(=O)[nH]cnc21)c1ccc(CN2CCOCC2)cc1` reads 1.12; that for `CC(=O)Nc1ccc(O)c(C(C)(C)C)c1`, 2.36.
Next, `COP(=O)(OC)O/C(C)=C/C(=O)N(C)C`: 0; `CCCCCCCNC(=O)c1ccccc1`: 3.94.
For the compound `O=C1CC(=O)NC(=O)N1`, the logP is -1.47.
For `Clc1ccc(-c2cccc(Cl)c2Cl)cc1`, the logP came to 5.42.
The compound `O=c1cc[nH]c2ccccc12` had a logP of 0.58.
Next, `CCCCCNc1nc(NC)nc(SC(F)F)n1`: 4.42; `N#CCN`: -1.37.
The result for `c1nc[nH]n1` reads -0.58.
Next, `CCCCC(=O)Nc1ccccc1`: 2.61; `CC(C)NC(=O)c1cccnc1`: 0.59; `Cc1cccc2c(C)cccc12`: 4.38.
For the compound `CNc1nc2ccccc2o1`, the logP came to 1.82.
The result for `O=[N+]([O-])C=Cc1ccsc1` reads 1.94.
Next, `CSc1ccc(O)cc1`: 1.78.
In turn, `Oc1cccc(C(F)(F)F)c1` gave a logP of 2.95.
On to `CC(=O)Nc1ccncc1`, for which the logP came to 0.5.
Next, `c1ccc(N(c2ccccc2)c2ccccc2)cc1`: 5.74; `O=C(N/N=C/c1cc[nH]c1)Nc1ccccc1`: 2.96; `CCc1ccccc1OC(=O)NC`: 1.93.
Next, `CC(C)(C)c1ccccc1OCC(=O)O`: 3.33.
Next, `N#CCC(=O)c1ccccc1`: 0.97; `CCI`: 2.
Compound `CCC(=O)CC` yielded a logP of 0.99.
Next, `COc1ccccc1NS(=O)(=O)c1ccc(N)cc1`: 1.56; `CCOC(=O)C(SP(=S)(OC)OC)c1ccccc1` (stereo not drawn): 3.69; `Cc1[nH]cnc1CSCCNc1ncc(Cc2ccc3c(c2)OCO3)c(=O)[nH]1`: 2.11.
The result for `CCOc1ccc2cc[nH]c2c1` reads 2.53; that for `CCCCCCCOc1ccccc1NC(=O)OCCN1CCCCC1`, 5.62; that for `CCNC(=O)Nc1ccccc1`, 1.64.
The result for `O=S(=O)(c1ccccc1)c1ccc2ncccc2c1` reads 2.57.
As for `COc1ccc(C(C)c2ccc(OC)cc2)cc1`, the logP stood at 4.52.
As for `CSc1ccccc1N`, the logP is 1.2.
Next, `COc1ccccc1N`: 1.18; `CC(C)N1CCOC(c2ccccc2)C1` (stereo not drawn): 2.3; `Nc1ccc(F)c(Cl)c1`: 2.06.
Next, `O=[N+]([O-])c1ccccc1SSc1ccccc1[N+](=O)[O-]`: 3.37; `OCCCc1ccccn1`: 0.58.
In the case of `CC(=O)N[C@@H](CC(C)C)C(=O)N[C@@H](CO)C(=O)N[C@@H](Cc1ccccc1)C(N)=O` (Ac-Leu-Ser-Phe-NH2), the logP worked out at 0.23.
The result for `C=CCC1(CC(=C)Br)C(=O)NC(=O)N(C)C1=O` (stereo not drawn) reads 1.78.
